One assay concerns the target T1, human MC3R (Homo sapiens, UniProt P41968).
T1 construct: expressed in transfected cells; host or cells: HEK-293 cells stably expressing the GScAMP22F split-luciferase cAMP sensor (parent reporter line from Promega); MC3R clone generated in-house, G418 selection
Briefly: split-luciferase cAMP sensor assay, agonist mode (measurement window 1), hMC3R. Type of assay: cell-based. As to conditions: for Emax: read-out: MC3R cAMP % max activation; for pEC50: read-out: MC3R cAMP EC50. Here is the method:
(§1) The stable cell lines were grown and maintained in selection media consisting of Dulbecco's modified Eagle media (DMEM) with 4.5 g/l D-glucose, and 4 mM L-glutamine (Thermo Fisher Scientific, Waltham, MA), supplemented with 10% fetal bovine serum, 100 units/ml penicillin, 100 μg/ml streptomycin, 2.5 μg/ml amphotericin B, 200 μg/ml hygromycin B (for positive selection of the GScAMP22f luciferase reporter), and Geneticin™ (G418) 700 μg/ml (for MC3R or MC4R selection). Actual serum concentration during the assay is estimated to be about 1%. Cell line identity is routinely verified by qPCR and MC3R-and MC4R-specific oligonucleotides.
(§2) The assay for the determination of the cAMP response in live cells was described previously. […] Cells were seeded at a density of 20,000 cells per well using 384-well poly-D lysine-coated, clear bottom, and black-wall assay plates (Corning Inc. Corning, NJ). Cells were allowed to attach to the plates for 18 to 24 h after which growth media was removed and 20 μl of 4% D-luciferin (Promega) in CO2 independent, serum-free medium (Thermo Fisher Scientific) was added to each well. […] Intracellular cAMP levels were measured using an FDSS 7000EX Functional Drug Screening System (Hamamatsu Photonics, Hamamatsu, Japan) in the Center for Chemical Genomics at the Life Sciences Institute. This instrument allowed the in-line addition of test-peptides and receptor agonists while simultaneously acquiring the luminescence signal from live cells. […] A submaximal forskolin (20 μM) concentration was also included to serve as a normalization reference to account for cell number variations and differences in assay transducer efficiency between cell lines.
(§3) With this set up it was possible to evaluate the direct effect of the test-peptides on the MC3R and MC4R cell lines during measurement window 1, while the antagonist profile in the presence of EC90 α-MSH was determined on measurement window 2. […] EC50 or IC50 potency values were determined by non-linear regression by fitting the data to a sigmoid four-parameter variable slope model using the GraphPad Prism version 8.4 software package (San Diego CA).

The target of a further assay is T2, human MC4R (Homo sapiens, UniProt P32245).
T2 construct: host or cells: HEK-293 cells stably expressing the GScAMP22F split-luciferase cAMP sensor and hMC4R, G418 selection
T2 sequence (P32245 whole entry): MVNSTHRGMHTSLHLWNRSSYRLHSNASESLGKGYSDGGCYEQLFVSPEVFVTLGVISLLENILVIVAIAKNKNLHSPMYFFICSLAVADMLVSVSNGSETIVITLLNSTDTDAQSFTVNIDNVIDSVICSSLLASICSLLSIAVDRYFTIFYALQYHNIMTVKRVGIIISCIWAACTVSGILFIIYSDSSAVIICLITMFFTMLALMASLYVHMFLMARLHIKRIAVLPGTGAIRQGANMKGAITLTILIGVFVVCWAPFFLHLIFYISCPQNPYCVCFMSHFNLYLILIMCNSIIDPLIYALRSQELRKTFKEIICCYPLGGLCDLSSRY
Briefly: split-luciferase cAMP sensor assay, agonist mode (measurement window 1), hMC4R. The assay is classed as cell-based. The settings on record: for Emax: read-out: MC4R cAMP % max activation; for pEC50: read-out: MC4R cAMP EC50. How it is done: as §1, §2, §3

Where [1] appears, read: agonist mode, hMC3R stable cell line.
Setting [2] is: agonist mode, hMC4R stable cell line.
[3] abbreviates: % maximal activation, agonist mode.

pEC50: −log10 of the molar value. Where two headings read alike, the source gives them in different places. Positions of bridges follow the written chain, without caps; N, C: chain ends. Non-standard residues stand in square brackets, D forms with d. Residues, ends and D or L forms follow the SMILES beside them. dPhe(4-Br) = N[C@H](Cc1ccc(Br)cc1)C(=O)O; dPhe(4-I) = N[C@H](Cc1ccc(I)cc1)C(=O)O; d(αMeF) = C[C@@](N)(Cc1ccccc1)C(=O)O; dTic = O=C(O)[C@H]1Cc2ccccc2CN1; Nle = CCCC[C@H](N)C(=O)O

What is called pEC50 is the EC50 on a negative log10 scale, so that one unit is a factor of ten.

T1 sequence (P41968 whole entry): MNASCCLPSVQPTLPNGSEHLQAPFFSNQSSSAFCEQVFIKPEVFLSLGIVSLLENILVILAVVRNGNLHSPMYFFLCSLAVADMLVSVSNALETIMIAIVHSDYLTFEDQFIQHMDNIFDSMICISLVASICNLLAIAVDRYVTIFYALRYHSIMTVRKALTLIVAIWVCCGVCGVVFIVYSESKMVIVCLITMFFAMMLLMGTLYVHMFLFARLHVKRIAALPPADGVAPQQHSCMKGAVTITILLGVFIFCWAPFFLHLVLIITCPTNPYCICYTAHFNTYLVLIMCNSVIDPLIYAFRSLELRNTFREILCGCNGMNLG

For the molecule `CC(=O)N[C@@H](CCCNC(=N)N)C(=O)N[C@H]1CSSC[C@@H](C(N)=O)NC(=O)[C@@H](Cc2c[nH]c3ccccc23)NC(=O)[C@H](CCCNC(=N)N)NC(=O)[C@@](C)(Cc2ccccc2)NC(=O)[C@H](CCCNC(=N)N)NC(=O)[C@@H](C)NC1=O` [CTX-1240, Arg-cyclo(Cys-D-Ala-Arg-aMe-D-Phe-Arg-D-Trp-Cys)] (Ac-RC[dA]R[d(αMeF)]R[dW]C-NH2; disulfide 2-8), the “MC3R cAMP % max activation” value at human MC3R (setting [1]) is listed as “(27%)”. At human MC4R, the “MC4R selectivity vs MC1R” value is listed as 0.46 and the “MC4R selectivity vs MC3R” value turned out to be 0.41. The “MC4R cAMP % max activation” value on human MC4R (setting [2]) was “(81%)”.
As to `CC(=O)N[C@@H](CCCNC(=N)N)C(=O)N[C@H]1CSSC[C@@H](C(N)=O)NC(=O)[C@@H](Cc2c[nH]c3ccccc23)NC(=O)[C@H](CCCNC(=N)N)NC(=O)[C@H]2Cc3ccccc3CN2C(=O)[C@H](CCCNC(=N)N)NC(=O)[C@@H](C)NC1=O` [CTX-1273, Arg-cyclo(Cys-D-Ala-Arg-D-Tic-Arg-D-Trp-Cys)] (Ac-RC[dA]R[dTic]R[dW]C-NH2; disulfide 2-8), the Emax at human MC3R (setting [1]) was 3.7%. On human MC4R, the “MC4R selectivity vs MC1R” value came out at 0.05 and the “MC4R selectivity vs MC3R” value is given as 0.64. Moreover, at human MC4R (setting [2]), the Emax turned out to be 32%.
For `CCCC[C@H](NC(=O)[C@H](CCCNC(=N)N)NC(C)=O)C(=O)N[C@H]1CSSC[C@@H](C(N)=O)NC(=O)[C@@H](Cc2c[nH]c3ccccc23)NC(=O)[C@H](CCCNC(=N)N)NC(=O)[C@@H](Cc2ccc(OC)cc2)NC(=O)[C@H](CCCNC(=N)N)NC1=O` [CTX-1615, Arg-Nle-cyclo(Cys-Arg-D-Tyr(4-OMe)-Arg-D-Trp-Cys)] (Ac-R[Nle]CR[dY](Me)R[dW]C-NH2; disulfide 3-8), at human MC3R (setting [1]), the Emax came to 55% and the pEC50 was 7.57. At human MC4R, the “MC4R selectivity vs MC1R” value is 0.26 and the “MC4R selectivity vs MC3R” value stood at 2.14. At human MC4R (setting [2]), the Emax amounted to 68% and the pEC50 is 7.89.
As for `CC(=O)N[C@@H](CCCNC(=N)N)C(=O)N[C@H]1CSSC[C@@H](C(=O)N[C@@H](CCCNC(=N)N)C(=O)N[C@H](Cc2ccccc2)C(N)=O)NC(=O)[C@@H](Cc2c[nH]c3ccccc23)NC(=O)[C@H](CCCNC(=N)N)NC(=O)[C@@H](Cc2ccc(Br)cc2)NC(=O)[C@H](CCCNC(=N)N)NC(=O)[C@@H](C)NC1=O` [CTX-1222, Arg-cyclo(Cys-D-Ala-Arg-D-Phe(4-Br)-Arg-D-Trp-Cys)-Arg-D-Phe] (Ac-RC[dA]R[dPhe(4-Br)]R[dW]CR[dF]-NH2; disulfide 2-8 (inferred)), at human MC3R (setting [1]), the Emax came to 38%. At human MC4R, the “MC4R selectivity vs MC1R” value is 0.1 and the “MC4R selectivity vs MC3R” value is on record as 0.33. Further, the Emax at human MC4R (setting [2]) is 79%.
Consider `CCCC[C@H](NC(C)=O)C(=O)N[C@H]1CSSC[C@@H](C(N)=O)NC(=O)[C@@H](Cc2c[nH]c3ccccc23)NC(=O)[C@H](CCCNC(=N)N)NC(=O)[C@@H](Cc2ccc(I)cc2)NC(=O)[C@H](Cc2c[nH]cn2)NC1=O` [CTX-1234, Nle-cyclo(Cys-His-D-Phe(4-I)-Arg-D-Trp-Cys)] (Ac-[Nle]CH[dPhe(4-I)]R[dW]C-NH2; disulfide 2-7 (inferred)), for which, on human MC3R (setting [1]), the Emax was determined as 18%. At human MC4R, the “MC4R selectivity vs MC1R” value is given as 0.2 and the “MC4R selectivity vs MC3R” value amounted to 1.32. At human MC4R (setting [2]), the Emax is 16% and the pEC50 was 8.59.
As for `CC(=O)N[C@H]1CSSC[C@@H](C(N)=O)NC(=O)[C@H](Cc2c[nH]c3ccccc23)NC(=O)[C@H](CCCNC(=N)N)NC(=O)[C@@H](Cc2ccccc2)NC(=O)[C@H](Cc2c[nH]cn2)NC(=O)CNC1=O` [CTX-1206, cyclo(Cys-Gly-His-D-Phe-Arg-Trp-Cys)] (Ac-CGH[dF]RWC-NH2; disulfide 1-7 (inferred)), the Emax on human MC3R (setting [3]) worked out at 94%; on human MC4R (setting [3]) it was 101%. Further, the pEC50 at human MC3R (HEK-293 cells stably expressing hMC3R, agonist mode) was 7.92; on human MC4R (HEK-293 cells stably expressing hMC4R, agonist mode), 9.28. For the same molecule, the “MC4R selectivity vs MC3R” value on human MC3R (MC4R versus MC3R) is reported as 23.

Source of the values: patent US20240391954A1, “MC4R AGONIST PEPTIDES” (The Regents of the University of Michigan, priority 2021, published 2024).
